Article PMC7311426, “An amphipathic peptide with antibiotic activity against multidrug-resistant Gram-negative bacteria” (Nature Communications, 2020)
≈ marks a conversion by molar mass, not a printed value. Where two headings read alike, the source gives them in different places.

Tests used:
P. aeruginosa = test: microbe, parasite or virus in culture; conditions: Pseudomonas aeruginosa
Method in brief: (§1)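 Broth microdilution in MHB, 2-fold 12-point series from 128 or 64 down to 0.06 or 0.03 μg mL^−1, 5 × 10^5 CFU mL^−1. Extra runs in CAMHB per CLSI and in MHB with 1% agarose; n ≥ 6.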

A. baumannii = test: microbe, parasite or virus in culture; conditions: Acinetobacter baumannii, mode of 6 replicates
Method in brief: as §1

## C[C@@H](O)[C@H]1C(=O)N2C(C(=O)O)=C(S[C@@H]3CN[C@H](C(=O)N(C)C)C3)[C@H](C)[C@H]12 [Meropenem, meropenem, reference compound]
P. aeruginosa; ATCC27853, read-out: MIC, broth microdilution, P. aeruginosa ATCC 27853 spontaneous mutant, AA139 selection 4X, plate 2, colony 1, drug-free passage 5
  MIC: 0.25 µg/mL (≈ 0.652 µM)
P. aeruginosa; ATCC27853, read-out: MIC, broth microdilution, P. aeruginosa ATCC 27853 spontaneous mutant, AA139 selection 4X, plate 2, colony 2, drug-free passage 1
  MIC: 0.5 µg/mL (≈ 1.3 µM)
P. aeruginosa; ATCC27853, read-out: MIC, broth microdilution, P. aeruginosa ATCC 27853 spontaneous mutant, AA139 selection 4X, plate 2, colony 2, drug-free passage 5
  MIC: 0.25 µg/mL (≈ 0.652 µM)
P. aeruginosa; ATCC27853, read-out: MIC, broth microdilution, P. aeruginosa ATCC 27853 spontaneous mutant, AA139 selection 4X, plate 2, colony 3, drug-free passage 1
  MIC: 0.5 µg/mL (≈ 1.3 µM)
P. aeruginosa; ATCC27853, read-out: MIC, broth microdilution, P. aeruginosa ATCC 27853 spontaneous mutant, AA139 selection 4X, plate 2, colony 3, drug-free passage 5
  MIC: 0.25 µg/mL (≈ 0.652 µM)
P. aeruginosa; ATCC27853, read-out: MIC, broth microdilution, P. aeruginosa ATCC 27853 spontaneous mutant, AA139 selection 4X, plate 2, colony 4, drug-free passage 1
  MIC: 0.5 µg/mL (≈ 1.3 µM)
P. aeruginosa; ATCC27853, read-out: MIC, broth microdilution, P. aeruginosa ATCC 27853 spontaneous mutant, AA139 selection 4X, plate 2, colony 4, drug-free passage 5
  MIC: 0.25 µg/mL (≈ 0.652 µM)
P. aeruginosa; ATCC27853, read-out: MIC, broth microdilution, P. aeruginosa ATCC 27853 spontaneous mutant, AA139 selection 8X, plate 1, colony 1, drug-free passage 1
  MIC: 0.5 µg/mL (≈ 1.3 µM)
P. aeruginosa; ATCC27853, read-out: MIC, broth microdilution, P. aeruginosa ATCC 27853 spontaneous mutant, AA139 selection 8X, plate 1, colony 1, drug-free passage 5
  MIC: 0.5 µg/mL (≈ 1.3 µM)
P. aeruginosa; ATCC27853, read-out: MIC, broth microdilution, P. aeruginosa ATCC 27853 spontaneous mutant, AA139 selection 8X, plate 1, colony 2, drug-free passage 1
  MIC: 0.25 µg/mL (≈ 0.652 µM)
P. aeruginosa; ATCC27853, read-out: MIC, broth microdilution, P. aeruginosa ATCC 27853 spontaneous mutant, AA139 selection 8X, plate 1, colony 2, drug-free passage 5
  MIC: 0.5 µg/mL (≈ 1.3 µM)
P. aeruginosa; ATCC27853, read-out: MIC, broth microdilution, P. aeruginosa ATCC 27853 spontaneous mutant, AA139 selection 8X, plate 1, colony 3, drug-free passage 1
  MIC: 0.25 µg/mL (≈ 0.652 µM)
P. aeruginosa; ATCC27853, read-out: MIC, broth microdilution, P. aeruginosa ATCC 27853 spontaneous mutant, AA139 selection 8X, plate 1, colony 3, drug-free passage 5
  MIC: 0.25 µg/mL (≈ 0.652 µM)
P. aeruginosa; ATCC27853, read-out: MIC, broth microdilution, P. aeruginosa ATCC 27853 spontaneous mutant, AA139 selection 8X, plate 1, colony 4, drug-free passage 1
  MIC: 0.5 µg/mL (≈ 1.3 µM)
P. aeruginosa; ATCC27853, read-out: MIC, broth microdilution, P. aeruginosa ATCC 27853 spontaneous mutant, AA139 selection 8X, plate 1, colony 4, drug-free passage 5
  MIC: 0.5 µg/mL (≈ 1.3 µM)
P. aeruginosa; ATCC27853, read-out: MIC, broth microdilution, P. aeruginosa ATCC 27853 spontaneous mutant, AA139 selection 8X, plate 1, colony 5, drug-free passage 1
  MIC: 0.5 µg/mL (≈ 1.3 µM)
P. aeruginosa; ATCC27853, read-out: MIC, broth microdilution, P. aeruginosa ATCC 27853 spontaneous mutant, AA139 selection 8X, plate 1, colony 5, drug-free passage 5
  MIC: 0.25 µg/mL (≈ 0.652 µM)
P. aeruginosa; read-out: BMD MIC, P. aeruginosa FADDI-070, MDR, PmxR, MHB/CAMHB, mode of 6 replicates
  MIC: 1 µg/mL (≈ 2.61 µM)
P. aeruginosa; read-out: MIC, broth microdilution, P. aeruginosa UNT 138-1 spontaneous mutant, AA139 selection 4X, plate 1, colony 1, drug-free passage 1
  MIC: 0.12 µg/mL (≈ 0.313 µM)
P. aeruginosa; read-out: MIC, broth microdilution, P. aeruginosa UNT 138-1 spontaneous mutant, AA139 selection 4X, plate 1, colony 1, drug-free passage 5
  MIC: 0.12 µg/mL (≈ 0.313 µM)
P. aeruginosa; read-out: MIC, broth microdilution, P. aeruginosa UNT 138-1 spontaneous mutant, AA139 selection 4X, plate 1, colony 2, drug-free passage 1
  MIC: 0.12 µg/mL (≈ 0.313 µM)
P. aeruginosa; read-out: MIC, broth microdilution, P. aeruginosa UNT 138-1 spontaneous mutant, AA139 selection 4X, plate 1, colony 2, drug-free passage 5
  MIC: 0.25 µg/mL (≈ 0.652 µM)
P. aeruginosa; read-out: MIC, broth microdilution, P. aeruginosa UNT 138-1 spontaneous mutant, AA139 selection 4X, plate 1, colony 3, drug-free passage 1
  MIC: 0.06 µg/mL (≈ 0.156 µM)
P. aeruginosa; read-out: MIC, broth microdilution, P. aeruginosa UNT 138-1 spontaneous mutant, AA139 selection 4X, plate 1, colony 3, drug-free passage 5
  MIC: 0.12 µg/mL (≈ 0.313 µM)
P. aeruginosa; read-out: MIC, broth microdilution, P. aeruginosa UNT 138-1 spontaneous mutant, AA139 selection 4X, plate 1, colony 4, drug-free passage 1
  MIC: 0.06 µg/mL (≈ 0.156 µM)
P. aeruginosa; read-out: MIC, broth microdilution, P. aeruginosa UNT 138-1 spontaneous mutant, AA139 selection 4X, plate 1, colony 4, drug-free passage 5
  MIC: 0.12 µg/mL (≈ 0.313 µM)
P. aeruginosa; read-out: MIC, broth microdilution, P. aeruginosa UNT 138-1 spontaneous mutant, AA139 selection 4X, plate 1, colony 5, drug-free passage 1
  MIC: 0.12 µg/mL (≈ 0.313 µM)
P. aeruginosa; read-out: MIC, broth microdilution, P. aeruginosa UNT 138-1 spontaneous mutant, AA139 selection 4X, plate 1, colony 5, drug-free passage 5
  MIC: 0.12 µg/mL (≈ 0.313 µM)
P. aeruginosa; read-out: MIC, broth microdilution, P. aeruginosa UNT 138-1 spontaneous mutant, AA139 selection 4X, plate 1, colony 6, drug-free passage 1
  MIC: 0.06 µg/mL (≈ 0.156 µM)
P. aeruginosa; read-out: MIC, broth microdilution, P. aeruginosa UNT 138-1 spontaneous mutant, AA139 selection 4X, plate 1, colony 6, drug-free passage 5
  MIC: 0.25 µg/mL (≈ 0.652 µM)
P. aeruginosa; read-out: MIC, broth microdilution, P. aeruginosa UNT 138-1 spontaneous mutant, AA139 selection 4X, plate 1, colony 7, drug-free passage 1
  MIC: 0.06 µg/mL (≈ 0.156 µM)
P. aeruginosa; read-out: MIC, broth microdilution, P. aeruginosa UNT 138-1 spontaneous mutant, AA139 selection 4X, plate 1, colony 7, drug-free passage 5
  MIC: 0.12 µg/mL (≈ 0.313 µM)
P. aeruginosa; read-out: MIC, broth microdilution, P. aeruginosa UNT 138-1 spontaneous mutant, AA139 selection 4X, plate 2, colony 1, drug-free passage 1
  MIC: 0.06 µg/mL (≈ 0.156 µM)
P. aeruginosa; read-out: MIC, broth microdilution, P. aeruginosa UNT 138-1 spontaneous mutant, AA139 selection 4X, plate 2, colony 1, drug-free passage 5
  MIC: 0.06 µg/mL (≈ 0.156 µM)
P. aeruginosa; read-out: MIC, broth microdilution, P. aeruginosa UNT 138-1 spontaneous mutant, AA139 selection 4X, plate 2, colony 2, drug-free passage 1
  MIC: 0.25 µg/mL (≈ 0.652 µM)
P. aeruginosa; read-out: MIC, broth microdilution, P. aeruginosa UNT 138-1 spontaneous mutant, AA139 selection 4X, plate 2, colony 2, drug-free passage 5
  MIC: 0.12 µg/mL (≈ 0.313 µM)
P. aeruginosa; read-out: MIC, broth microdilution, P. aeruginosa UNT 138-1 spontaneous mutant, AA139 selection 4X, plate 2, colony 3, drug-free passage 1
  MIC: 0.12 µg/mL (≈ 0.313 µM)
P. aeruginosa; read-out: MIC, broth microdilution, P. aeruginosa UNT 138-1 spontaneous mutant, AA139 selection 4X, plate 2, colony 3, drug-free passage 5
  MIC: 0.12 µg/mL (≈ 0.313 µM)
P. aeruginosa; read-out: MIC, broth microdilution, P. aeruginosa UNT 138-1 spontaneous mutant, AA139 selection 4X, plate 2, colony 4, drug-free passage 1
  MIC: 0.12 µg/mL (≈ 0.313 µM)
P. aeruginosa; read-out: MIC, broth microdilution, P. aeruginosa UNT 138-1 spontaneous mutant, AA139 selection 4X, plate 2, colony 4, drug-free passage 5
  MIC: 0.12 µg/mL (≈ 0.313 µM)
P. aeruginosa; read-out: MIC, broth microdilution, P. aeruginosa UNT 138-1 spontaneous mutant, AA139 selection 4X, plate 2, colony 5, drug-free passage 1
  MIC: 0.5 µg/mL (≈ 1.3 µM)
P. aeruginosa; read-out: MIC, broth microdilution, P. aeruginosa UNT 138-1 spontaneous mutant, AA139 selection 4X, plate 2, colony 5, drug-free passage 5
  MIC: 0.12 µg/mL (≈ 0.313 µM)
P. aeruginosa; read-out: MIC, broth microdilution, P. aeruginosa UNT 138-1 spontaneous mutant, AA139 selection 4X, plate 2, colony 6, drug-free passage 1
  MIC: 0.5 µg/mL (≈ 1.3 µM)
P. aeruginosa; read-out: MIC, broth microdilution, P. aeruginosa UNT 138-1 spontaneous mutant, AA139 selection 4X, plate 2, colony 6, drug-free passage 5
  MIC: 0.12 µg/mL (≈ 0.313 µM)
P. aeruginosa; read-out: MIC, broth microdilution, P. aeruginosa UNT 138-1 spontaneous mutant, AA139 selection 4X, plate 2, colony 7, drug-free passage 1
  MIC: 0.06 µg/mL (≈ 0.156 µM)
P. aeruginosa; read-out: MIC, broth microdilution, P. aeruginosa UNT 138-1 spontaneous mutant, AA139 selection 4X, plate 2, colony 7, drug-free passage 5
  MIC: 0.12 µg/mL (≈ 0.313 µM)
P. aeruginosa; read-out: MIC, broth microdilution, P. aeruginosa UNT 138-1 spontaneous mutant, AA139 selection 8X, plate 1, colony 1, drug-free passage 1
  MIC: 0.06 µg/mL (≈ 0.156 µM)
P. aeruginosa; read-out: MIC, broth microdilution, P. aeruginosa UNT 138-1 spontaneous mutant, AA139 selection 8X, plate 1, colony 1, drug-free passage 5
  MIC: 0.06 µg/mL (≈ 0.156 µM)
P. aeruginosa; read-out: MIC, broth microdilution, P. aeruginosa UNT 138-1 spontaneous mutant, AA139 selection 8X, plate 1, colony 2, drug-free passage 1
  MIC: 0.06 µg/mL (≈ 0.156 µM)
P. aeruginosa; read-out: MIC, broth microdilution, P. aeruginosa UNT 138-1 spontaneous mutant, AA139 selection 8X, plate 1, colony 2, drug-free passage 5
  MIC: 0.12 µg/mL (≈ 0.313 µM)
P. aeruginosa; read-out: MIC, broth microdilution, P. aeruginosa UNT 138-1 spontaneous mutant, AA139 selection 8X, plate 1, colony 3, drug-free passage 1
  MIC: 0.12 µg/mL (≈ 0.313 µM)
P. aeruginosa; read-out: MIC, broth microdilution, P. aeruginosa UNT 138-1 spontaneous mutant, AA139 selection 8X, plate 1, colony 3, drug-free passage 5
  MIC: 0.12 µg/mL (≈ 0.313 µM)
P. aeruginosa; read-out: MIC, broth microdilution, P. aeruginosa UNT 138-1 spontaneous mutant, AA139 selection 8X, plate 1, colony 4, drug-free passage 1
  MIC: 0.12 µg/mL (≈ 0.313 µM)
P. aeruginosa; read-out: MIC, broth microdilution, P. aeruginosa UNT 138-1 spontaneous mutant, AA139 selection 8X, plate 1, colony 4, drug-free passage 5
  MIC: 0.12 µg/mL (≈ 0.313 µM)
P. aeruginosa; read-out: MIC, broth microdilution, P. aeruginosa UNT 138-1 spontaneous mutant, AA139 selection 8X, plate 1, colony 5, drug-free passage 1
  MIC: 0.06 µg/mL (≈ 0.156 µM)
P. aeruginosa; read-out: MIC, broth microdilution, P. aeruginosa UNT 138-1 spontaneous mutant, AA139 selection 8X, plate 1, colony 5, drug-free passage 5
  MIC: 0.06 µg/mL (≈ 0.156 µM)
P. aeruginosa; read-out: MIC, broth microdilution, P. aeruginosa UNT 138-1 spontaneous mutant, AA139 selection 8X, plate 2, colony 1, drug-free passage 1
  MIC: 0.06 µg/mL (≈ 0.156 µM)
P. aeruginosa; read-out: MIC, broth microdilution, P. aeruginosa UNT 138-1 spontaneous mutant, AA139 selection 8X, plate 2, colony 1, drug-free passage 5
  MIC: 0.12 µg/mL (≈ 0.313 µM)
A. baumannii; ATCC19636, read-out: BMD MIC, A. baumannii ATCC 19636 type strain, CAMHB
  MIC: 1 µg/mL (≈ 2.61 µM)
A. baumannii; ATCC19636, read-out: BMD MIC, A. baumannii ATCC 19636 type strain, MHB
  MIC: 0.5 µg/mL (≈ 1.3 µM)
A. baumannii; read-out: BMD MIC, A. baumannii Greece CI, XDR, PmxR, MHB
  MIC: > 16 µg/mL
